Here are results for twelve molecules from US5747499A, “Anti-cancer compounds” (British Technology Group Limited, priority 1994, dated 1998).

Series [1] addresses T1, thymidylate synthase (Mus musculus, UniProt P07607).
T1 construct: Thymidylate synthase may be obtained in partially purified form from L1210 mouse leukaemia cells; endogenous in cells; host or cells: L1210 mouse leukaemia cells
Nature of the series: Test (a): in vitro assay, inhibition of thymidylate synthase (partially purified from L1210 mouse leukaemia cells). Format: biochemical. The text has this:
(a) An in vitro assay which determines the ability of a test compound to inhibit the enzyme thymidylate synthase.

Series [2] deals with leukaemia cell line L1210. Nature of the series: Test (b): inhibition of growth of the leukaemia cell line L1210 in cell culture. Format: cell-based. The settings on record: Mus musculus. From the text:
(b) An assay which determines the ability of a test compound to inhibit the growth of the leukaemia cell line L1210 in cell culture. The test may be similar to that described in UK Patent Specification No. 2065653B and has been described by Jones et al. (J. Med. Chem., 1985, 28, 1468);

The test system of series [3] is human breast, ovarian and liver cancer. The conditions noted are these: in vivo; cited from earlier work.
The conditions of series [4]: Cancer Treatment Reports, 1986, 70, 1335; cited from earlier work.
The mark [5] stands for this setting: thymidylate synthase partially purified from L1210 mouse leukaemia cells, read-out: IC50 in test (a).

pIC50: −log10 of the molar value. Where two headings read alike, the source gives them in different places.

T1 sequence (P07607 whole entry): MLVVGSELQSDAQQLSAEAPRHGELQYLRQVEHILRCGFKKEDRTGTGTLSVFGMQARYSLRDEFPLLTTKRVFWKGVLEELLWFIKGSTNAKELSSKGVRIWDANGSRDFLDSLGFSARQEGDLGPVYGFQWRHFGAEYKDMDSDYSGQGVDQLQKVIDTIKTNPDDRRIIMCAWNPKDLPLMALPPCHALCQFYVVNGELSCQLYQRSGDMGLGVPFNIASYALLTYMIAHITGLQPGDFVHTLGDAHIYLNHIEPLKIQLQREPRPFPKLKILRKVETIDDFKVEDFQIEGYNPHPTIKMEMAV

Consider `Cc1nc2cc3c(cc2c(=O)[nH]1)C(N(C)c1ccc(C(=O)N[C@H](C(=O)O)c2ccc(CC(=O)O)cc2)c(F)c1)CC3` (mixture of isomers) [Example 8, (2S)-2-{o-fluoro-p-[N-methyl-N-((6RS)-2-methyl-4-oxo-3,4,7,8-tetrahydro-6H-cyclopenta[g]quinazolin-6-yl)amino]benzamido}-2-[p-(carboxymethyl)phenyl]acetic acid], for which the pIC50 in series [1] was 8.12.

Take `Cc1nc2cc3c(cc2c(=O)[nH]1)C(N(C)c1ccc(C(=O)N[C@@H](CCc2nnn(CC(=O)O)n2)C(=O)O)c(F)c1)CC3` (mixture of isomers) [Example 10, (2S)-2-{o-Fluoro-p-[N-methyl-N-((6RS)-2-methyl-4-oxo-3,4,7,8-tetrahydro-6H-cyclopenta[g]quinazolin-6-yl)amino]benzamido}-4-(2-carboxymethyltetrazol-5-yl)-butyric acid]: the pIC50 in series [1] was 8.06; in series [2] it was 5.92.

For the molecule `Cc1nc2cc3c(cc2c(=O)[nH]1)C(N(C)c1ccc(C(=O)N[C@@H](CCc2nnnn2CC(=O)O)C(=O)O)c(F)c1)CC3` (mixture of isomers) [Example 11, (2S)-2-{o-Fluoro-p-[N-methyl-N-((6RS)-2-methyl-4-oxo-3,4,7,8-tetrahydro-6H-cyclopenta[g]quinazolin-6-yl)amino]benzamido}-4-(1-carboxymethyltetrazol-5-yl)-butyric acid], the pIC50 in series [1] was 7.83; in series [2], 4.64.

As to `Cc1nc2cc3c(cc2c(=O)[nH]1)[C@H](N(C)c1ccc(C(=O)N[C@@H](CCC(=O)N[C@@H](C(=O)O)c2ccc(CC(=O)O)cc2)C(=O)O)c(F)c1)CC3` (mixture of isomers) [Example 12, (2RS)-2-{N-{N-{o-Fluoro-p-[N-methyl-N-((6RS)-2-methyl-4-oxo-3,4,7,8-tetrahydro-6H-cyclopenta[g]quinazolin-6-yl)amino]benzoyl}-L-γ-glutamyl}amino}-2-[p-(carboxymethyl)phenyl]acetic acid], the pIC50 in series [1] is 8.40; in series [2] it was 5.41.

Take `C#CCN(c1ccc(C(=O)N[C@@H](CCC(=O)N(C)[C@@H](CCC(=O)O)C(=O)O)C(=O)O)cc1)C1CCc2cc3nc(C)[nH]c(=O)c3cc21` (mixture of isomers) [Example 13, N-{p-[N-((6RS)-2-Methyl-4-oxo-3,4,7,8-tetrahydro-6H-cyclopenta[g]quinazolin-6-yl)-N-(prop-2-ynyl)amino]benzoyl}-L-γ-glutamyl-N-methyl-L-glutamic acid]: the pIC50 is 8.85 in series [1] and 5.64 in series [2].

Regarding `C#CCN(c1ccc(C(=O)N[C@@H](CCc2nnnn2CCC(=O)O)C(=O)O)cc1)C1CCc2cc3nc(C)[nH]c(=O)c3cc21` (mixture of isomers) [Example 14, (2S)-2-{p-[N-((6RS)-2-methyl-4-oxo-3,4,7,8-tetrahydro-6H-cyclopenta[g]quinazolin-6-yl)-N-(prop-2-ynyl)amino]benzamido}-4-[1-(2-carboxyethyl)tetrazol-5-yl]butyric acid], the values for the pIC50 in series [1] and in series [2] were 8.74 and 6.20, respectively.

`C#CCN(c1ccc(C(=O)N[C@@H](CCC(=O)N[C@@H](CCc2nnnn2CC(=O)O)C(=O)O)C(=O)O)cc1)C1CCc2cc3nc(C)[nH]c(=O)c3cc21` (mixture of isomers) [Example 15, (2S)-2-{N-{N-{p-[N-((6RS)-2-Methyl-4-oxo-3,4,7,8-tetrahydro-6H-cyclopenta[g]quinazolin-6-yl)-N-(prop-2-ynyl)amino]benzoyl}-L-γ-glutamyl}amino}-4-(1-carboxymethyltetrazol-5-yl)butyric acid]: the pIC50 in series [1] (setting [5]) was 8.97; in series [2] it was 5.14.

`C#CCN(c1ccc(C(=O)N[C@@H](CCCS(=O)(=O)c2nnc[nH]2)C(=O)O)cc1)C1CCc2cc3nc(C)[nH]c(=O)c3cc21` (mixture of isomers) [Example 17, (2S)-2-{p-[N-((6RS)-2-methyl-4-oxo-3,4,7,8-tetrahydro-6H-cyclopenta[g]quinazolin-6-yl)-N-(prop-2-ynyl)amino]benzamido}-5-(1H-1,2,4-triazol-3-ylsulphonyl)pentanoic acid]: the pIC50 is 8.80 in series [1] (setting [5]) and 6.60 in series [2].

As to `C#CCN(c1ccc(C(=O)N[C@@H](CCC(=O)N[C@H](CCC(=O)O)c2nnn[nH]2)C(=O)O)cc1)C1CCc2cc3nc(C)[nH]c(=O)c3cc21` (mixture of isomers) [Example 18, (4R)-4-{N-{N-{p-[N-((6RS)-2-Methyl-4-oxo-3,4,7,8-tetrahydro-6H-cyclopenta[g]quinazolin-6-yl)-N-(prop-2-ynyl)amino]benzoyl}-L-γ-glutamyl}amino}-4-(tetrazol-5-yl)butyric acid], the pIC50 in series [1] is 8.97; in series [2], 6.07.

For `C#CCN(c1ccc(C(=O)N[C@@H](CCC(=O)N[C@H](C)C(=O)O)C(=O)O)cc1)C1CCc2cc3nc(C)nc(O)c3cc21` (mixture of isomers) [Example 19, N-{N-{p-[N-((6RS)-2-methyl-4-oxo-3,4,7,8-tetrahydro-6H-cyclopenta[g]quinazolin-6-yl)-N-(prop-2-ynyl)amino]benzoyl}-L-γ-glutamyl}-D-alanine], the pIC50 in series [1] (setting [5]) was 8.74; in series [2], 6.28.

Consider `C#CCN(Cc1ccc2nc(N)[nH]c(=O)c2c1)c1ccc(C(=O)N[C@@H](CCC(=O)O)C(=O)O)cc1` [CB3717], for which the “activity against human breast, ovarian and liver cancer” value in series [3] is “promising activity against human breast, ovarian and liver cancer”. Further, in series [4], the “symptoms of toxicity in humans” value is “shows symptoms of toxicity in humans, particularly in relation to the liver and kidneys”.

`C#CCN(c1ccc(C(=O)N[C@@H](CCc2nnnn2CC(=O)N[C@H](C)C(=O)O)C(=O)O)cc1)C1CCc2cc3nc(C)nc(O)c3cc21` (some centres unmarked) [Example 16]: the pIC50 in series [1] is 8.47; in series [2], 5.00.

A word on the pIC50: it is the negative decadic logarithm of the IC50, by convention in mol/L.
